Measured values as given in patent publication US20070027136A1, “Formulations of anthraquinone derivatives” (priority 2003, published 2007).

Assay: AQMN content before and after freeze drying
Assay type: physicochemical
Conditions: 40 mg/ml, 10 mM sodium phosphate buffer pH 7.0
Description: Formulated AQ4N material was prepared at 40 mg/ml in 10 mM sodium phosphate buffer at pH 7.0. A portion of this solution was filled into ampoules and the remained into vials and freeze dried according to the cycle as specified in Tables 9 and 10.
The AQMN content of the samples before and after freeze drying (ampoule fill and vial fill, respectively) were measured as shown in Table 11.

C[N+](C)([O-])CCNc1ccc(NCC[N+](C)(C)[O-])c2c1C(=O)c1c(O)ccc(O)c1C2=O [AQ4N raw material]
AQMN content (% peak area w.r.t. std.): 22.6%
